From ChEMBL document CHEMBL1201862, “PubChem BioAssay data set” (2004)
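Step 1: Grow cells in 96-well plates. Step 2: Expose to compound for 48 hours at 5 concentrations. Step 3: Interpolate endpoints linearly; if unreached, use highest concentration. GI50 marks 50% less growth.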 Active and inactive are the calls of the source. Rule as the data show it: active = GI50 up to about 1.1 µM and inactive = higher.

Key:
Test in all cases: NCI-60 cell line screen, 48 h
MDA-N = test system: MDA-N
T47D = test system: T47D
SNB-78 = test system: SNB-78
HOP-18 = test system: HOP-18
M19-MEL = test system: M19-MEL
LXFL 529 = test system: LXFL 529
KM-20L2 = test system: KM-20L2
786-0 = test system: 786-0
RXF 631 = test system: RXF 631

Structure (SMILES)	GI50 (MDA-N)	GI50 (T47D)	GI50 (SNB-78)	GI50 (HOP-18)	GI50 (M19-MEL)	GI50 (LXFL 529)	GI50 (KM-20L2)	GI50 (786-0)	GI50 (RXF 631)
c1ccc(CSC2(SCc3ccccc3)CCCC2)cc1	> 10 µM (inactive)	> 10 µM (inactive)							
CC1(C)OP23(NC(=O)OC2(C(F)(F)F)c2ccccc2O3)OC1(C)C (stereo not given)			> 100 µM (inactive)	> 100 µM (inactive)	> 100 µM (inactive)	> 100 µM (inactive)			
C[Si](C)(C)/C=C/CN1C(=O)CCC1=O			> 100 µM (inactive)	40.1 µM (inactive)	> 100 µM (inactive)	> 100 µM (inactive)	> 100 µM (inactive)		
COc1nc(SC)nc2c1cnn2C1OC(C(O)CO)C(OC)C1O (stereo not given)			> 85.9 µM (inactive)	> 100 µM (inactive)	> 75.5 µM (inactive)		> 85.9 µM (inactive)		
COc1cc(C2C(C(=O)O)=C(CO)Oc3cc4c(cc32)OCO4)cc(OC)c1O (stereo not given)			> 100 µM (inactive)	> 100 µM (inactive)			> 100 µM (inactive)		
CC1(C)CC(=O)C2=C(C1)OC1=C(CC(C)(C)CC1=O)C2c1ccccc1[N+](=O)[O-] (stereo not given)	> 100 µM (inactive)	> 100 µM (inactive)						> 100 µM (inactive)	
c1ccc(C(NC2=NCCO2)c2ccccc2)cc1	> 10 µM (inactive)	> 10 µM (inactive)							
O=C(O)Cc1cc(F)ccc1C(=O)O	> 100 µM (inactive)	> 100 µM (inactive)						> 100 µM (inactive)	
O=c1[nH]c(=O)n(C2CC(O)C(CO)O2)cc1C(OCC(F)(F)F)OCC(F)(F)F (stereo not given)			> 100 µM (inactive)		> 100 µM (inactive)	> 100 µM (inactive)	> 100 µM (inactive)	> 100 µM (inactive)	> 100 µM (inactive)
Cc1nc2ccccc2n1C(=O)c1c(F)c(F)c(F)c(F)c1F	8.69 µM (inactive)	59.8 µM (inactive)							
O=C(NN1C(=O)CS(=O)(=O)C1c1ccc(Cl)c(Cl)c1)c1ccncc1 (stereo not given)			> 93.1 µM (inactive)	> 100 µM (inactive)	> 100 µM (inactive)		> 91.4 µM (inactive)		
CC(=O)OC(OC(C)=O)n1cc(C=O)c2ccccc21		> 100 µM (inactive)							
C[N+](C)([O-])CCOc1cc2c(c3ccccc13)-c1ccccc1C2=O			19.8 µM (inactive)	29.1 µM (inactive)	15.1 µM (inactive)		20.1 µM (inactive)		
Cc1cc(C)n(C(=C(C(Cl)=C(Cl)Cl)[N+](=O)[O-])n2nc(C)cc2C)n1	4.06 µM (inactive)	4.05 µM (inactive)							
CN(/N=C1\C(=O)Nc2ccccc21)c1ccccc1	40.6 µM (inactive)	34.7 µM (inactive)							
CN(C)CCNC(=O)c1cccc2ccc(-c3ccc(F)cc3)nc12			8.85 µM (inactive)	17.4 µM (inactive)	4.33 µM (inactive)		4.22 µM (inactive)		
Cc1cnc(/N=c2\sc(C)cn2-c2ncc(C)s2)s1	> 100 µM (inactive)	> 100 µM (inactive)						> 100 µM (inactive)	
N#C/N=N/c1cc(Cl)c(/N=N/C#N)cc1Cl			> 100 µM (inactive)		> 100 µM (inactive)	28.3 µM (inactive)	> 100 µM (inactive)		
O=[N+]([O-])c1ccc2[nH]c3c(-c4ccccc4)nccc3c2c1			31 µM (inactive)	18 µM (inactive)	25.9 µM (inactive)		27.6 µM (inactive)		
COC(=O)c1cn(CC(O)CCl)nn1 (stereo not given)	> 100 µM (inactive)	> 100 µM (inactive)							
O=C(O)C12CCCCC1CCCC2 (stereo not given)				> 100 µM (inactive)	> 100 µM (inactive)	> 100 µM (inactive)	> 100 µM (inactive)		
COc1c(Br)cc(CC(N)=O)c(O)c1Br			> 100 µM (inactive)	> 100 µM (inactive)	> 100 µM (inactive)		> 100 µM (inactive)		> 100 µM (inactive)
C[C@]12CC[C@H]3[C@@H](CCC4=CC(=O)CC[C@@]43C)[C@@H]1CC[C@@H]2C(=O)COS(=O)(=O)c1ccc(Br)cc1	0.379 µM (active)	9.35 µM (inactive)							
